What was measured:
Qa-1^b = Qa-1^b (Mus musculus, UniProt P06339); assay type: binding; conditions: competition with biotin-Qdm4C
[1] = tested on: T2 cells expressing Qa-1^b (T237); assay type: cell-based, human; conditions: for Inhibition of killing of T237 targets by Qa-1^b-Qdm tetramer-positive NK cells: 30 μM peptide overnight and during the 4-h assay, Fig. 6
Dk = conditions: cited from earlier work

Chain of Qa-1^b (P06339 21-304 limits assumed): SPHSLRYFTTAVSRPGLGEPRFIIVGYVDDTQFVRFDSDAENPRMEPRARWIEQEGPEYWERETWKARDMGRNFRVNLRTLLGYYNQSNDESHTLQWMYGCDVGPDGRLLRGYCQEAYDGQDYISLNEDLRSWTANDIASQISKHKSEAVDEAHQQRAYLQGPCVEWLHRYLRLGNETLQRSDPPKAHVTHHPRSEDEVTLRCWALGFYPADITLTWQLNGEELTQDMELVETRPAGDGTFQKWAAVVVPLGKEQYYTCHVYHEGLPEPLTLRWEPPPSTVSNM
Chain of Qa-1^b (P61769 21-119 partner): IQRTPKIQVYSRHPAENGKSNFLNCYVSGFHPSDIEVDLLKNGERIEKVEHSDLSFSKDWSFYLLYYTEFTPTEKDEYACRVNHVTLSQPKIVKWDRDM

Sequence: AMACRTLLL [Qdm4C]
- Binding affinity for Qa-1 in competition assays compared with Qdm (Qa-1^b): affinity similar or identical to Qdm

Sequence: AMAPRTLLL [Qdm]
- Inhibition of lysis of T237 targets by tetramer-negative NK cells [1]: does not inhibit lysis
- Inhibition of killing of T237 targets by Qa-1^b-Qdm tetramer-positive NK cells [1]: markedly inhibit killing

Sequence: KMAPRTLLL [Qdm P1]
- Inhibition of killing of T237 targets by Qa-1^b-Qdm tetramer-positive NK cells [1]: Substantial inhibition

Sequence: RRLGRTLLL [MT(389–397)]
- Binding to Dk (Dk): high affinity
